According to ChEMBL document CHEMBL1201862, “PubChem BioAssay data set” (2004):
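Following 48 hours of exposure in 96-well plates, responses at five concentrations were used to interpolate endpoints linearly. GI50 = concentration required for 50% inhibition of growth.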 Active and inactive are the calls of the source. No stated cut-off is given here; in the data, active = GI50 up to about 1.1 µM and inactive = higher.

Key:
Test in all cases: inhibition of tumour cell growth, NCI panel, 48 h
[1] = tested on: HOP-92
[2] = tested on: OVCAR-3
[3] = tested on: LOX IMVI
[4] = tested on: A549
[5] = tested on: HCT-116
[6] = tested on: SK-OV-3
[7] = tested on: M14
[8] = tested on: A498
[9] = tested on: NCI-H460
[10] = tested on: U-251
[11] = tested on: SNB-75
[12] = tested on: OVCAR-8
[13] = tested on: SF-295
[14] = tested on: OVCAR-4
[15] = tested on: K562
[16] = tested on: OVCAR-5
[17] = tested on: IGROV-1
[18] = tested on: HL-60
[19] = tested on: SN12C

Measured: GI50

CCN(CC)C(=O)CC12CCCCC1=Nc1ccccc12 (stereo unspecified)
inactive: [1] 51.6 µM | [2] > 100 µM | [3] > 100 µM | [4] > 100 µM | [5] > 100 µM | [6] > 100 µM | [7] > 100 µM | [8] > 100 µM | [9] > 100 µM | [10] > 100 µM | [11] > 100 µM | [12] > 100 µM | [13] > 100 µM | [14] > 100 µM | [15] > 100 µM | [16] > 100 µM | [17] > 100 µM | [18] > 100 µM

S=C(N/N=C/c1ccco1)NC12CC3CC(CC(C3)C1)C2
inactive: [1] 47 µM | [2] 84.1 µM | [3] 86.5 µM | [4] > 100 µM | [5] > 100 µM | [6] > 100 µM | [7] > 100 µM | [8] > 100 µM | [9] 66.2 µM | [10] 73.8 µM | [11] 83.8 µM | [19] > 100 µM | [12] > 100 µM | [13] > 100 µM | [14] 65.3 µM | [15] 43.8 µM | [16] > 100 µM | [17] > 100 µM

Cc1nc2c(n1Cc1ccc(Cl)cc1)C(=O)c1ccccc1C2=O
inactive: [2] 67.3 µM | [3] 2.05 µM | [4] 17.4 µM | [5] 2.6 µM | [6] > 75 µM | [7] > 75 µM | [9] 1.75 µM | [10] 3.48 µM | [11] 19.9 µM | [19] > 75 µM | [12] 8.99 µM | [13] 11 µM | [14] > 75 µM | [15] 2.06 µM | [17] > 75 µM | [18] 4.36 µM

COC(=O)C1C=CCON2CCc3c(n(C)c4ccccc34)C12 (stereo unspecified)
inactive: [1] > 100 µM | [2] > 100 µM | [3] > 100 µM | [4] > 100 µM | [5] > 100 µM | [6] > 100 µM | [7] > 100 µM | [8] 46.6 µM | [9] > 100 µM | [10] > 100 µM | [11] 88.1 µM | [19] > 100 µM | [13] > 100 µM | [14] > 100 µM | [15] > 100 µM | [16] > 100 µM | [17] > 100 µM | [18] > 100 µM

Cn1c(=O)nc2n(-c3ccc(Cl)cc3)c(-c3ccccc3)c(-c3ccccc3)nc-2c1=O
inactive: [1] 16.5 µM | [2] 21.7 µM | [4] 31.1 µM | [6] 40.3 µM | [7] 20 µM | [8] 49.3 µM | [9] 24.7 µM | [10] 27.5 µM | [11] 23.2 µM | [19] 33.6 µM | [12] 37.5 µM | [13] 30.1 µM | [14] 29.5 µM | [15] 25.6 µM | [16] 66.8 µM | [17] 30.1 µM | [18] 18.3 µM

CCc1cccc(C)c1NC(=O)CC1C(=O)Nc2ccccc2[S+]1[O-] (stereo unspecified)
inactive: [1] 53.7 µM | [2] 57.3 µM | [3] 44.5 µM | [4] 39.1 µM | [5] 35.8 µM | [7] 31.2 µM | [9] 33.6 µM | [10] 18.7 µM | [11] 33.5 µM | [19] 50 µM | [12] 46 µM | [13] 32.1 µM | [14] 28.3 µM | [15] 24.7 µM | [16] > 100 µM | [18] 28.4 µM

COC(=O)[C@H]1[C@H]2C[C@@H]3c4[nH]c5cc(OC)ccc5c4CCN3C[C@H]2C[C@@H](OC(=O)c2cc(OC)c(OC)c(OC)c2)[C@@H]1OC [RESERPINE]
inactive: [1] 10.8 µM | [2] 18.3 µM | [4] 18 µM | [5] 13.7 µM | [7] 15.4 µM | [9] 18.9 µM | [10] 15 µM | [11] 2.7 µM | [12] 19.6 µM | [13] 17.7 µM | [14] 12.7 µM | [15] 7.11 µM | [16] 38 µM | [17] 21.5 µM | [18] 14.2 µM

O=C1C(c2ccc([N+](=O)[O-])cc2)=[N+]([O-])c2ccccc21
inactive: [1] 31 µM | [2] 19.9 µM | [3] 21.1 µM | [4] 28 µM | [5] 25.8 µM | [6] 77.6 µM | [7] 28.7 µM | [9] 37 µM | [10] 16.5 µM | [11] 30.6 µM | [19] 24.5 µM | [12] 4.31 µM | [13] 42.1 µM | [14] 9.51 µM | [15] 26.5 µM | [16] 22.8 µM | [17] 43.3 µM | [18] 25.8 µM
